{
  "source": "patent US4795761A",
  "about": "“Contraceptive composition” (Euroceltique S.A., priority 1986, dated 1989)",
  "key": {"human sperm": {"tested_on": "human sperm", "test": "Human sperm motility, transmembrane migration ratio (two-chamber membrane method)", "assay_type": "cell-based", "conditions": "for inhibition at 25000 µM: beta-blocker 25 mM alone; for inhibition at 100 µM: beta-blocker 0.1 mM alone", "description": "A simple method for measuring human sperm motility was developed as a modification to the method of C. […] The method used two chambers separated by a membrane and assessed the proportion of spermatozoa, from a small aliquot of semen, that moved across the membrane from the upper to the lower chamber.\nThe apparatus consisted of an upper and a lower chamber, the upper chamber being the plunger of a 2 ml disposable syringe. A 13 mm diameter Nuclepore membrane filter was bonded to the plunger using dichloromethane.\nThe mixture was pre-incubated at 37° C. for 10 minutes.\nAfter pre-incubation the mixture was vortexed and 100 μl was pipetted onto the membrane of the upper chamber. The upper chamber was then inserted into the lower chamber, which contained 2 ml of phosphate buffered saline at 37° C.\nThe relative positions of the two chambers were fixed so that the fluid levels were equal.\nThe apparatus was then incubated for 90 mins. at 37° C. After this time, the upper chamber was removed and its contents were washed into 1.9 ml phosphate buffered saline containing 50 ul of 10% formalin solution by breaking the membrane. The spermatozoa in the lower chamber were also killed by adding 50 ul of the formalin to the lower chamber.\nFinally, the number of spermatozoa in the upper and lower chambers were counted using a haemocytometer. The proportion of spermatozoa that traverse the membrane into the lower chamber is referred to as the transmembrane migration ratio.\nUsing the same technique, but a different sperm source the control of sperm motility achieved by nonoxynol-9, various beta-blockers and mixtures of nonoxynol-9 and a beta-blocker was measured. […] Again, mM represents millimolar."}, "[1]": {"conditions": "cited from earlier work"}, "[2]": {"conditions": "Homo sapiens, Sperm, Table 2, beta-blocker 1.0 mM alone, read-out: % Inhibition of Sperm Motility"}, "[3]": {"conditions": "Homo sapiens, Sperm, Table 5, beta-blocker 1 mM alone, read-out: % Inhibition of Sperm Motility"}, "[4]": {"conditions": "Homo sapiens, Sperm, Table 3, beta-blocker 1.0 mM alone, read-out: % Inhibition of Sperm Motility"}},
  "note": "Read-outs that look alike come from different tables or passages of the source.",
  "data": [
    {"compound": "CC(C)NCC(O)COc1cccc2ccccc12", "note": "(racemic) [d,1-Propranolol]", "values": [
      {"measurement": "inhibition at 1000 µM", "setting": "human sperm; [2]", "value": 24.6, "unit": "%"},
      {"measurement": "inhibition at 1000 µM", "setting": "human sperm; [3]", "value": 10.5, "unit": "%"}
    ]},
    {"compound": "C=CCc1ccccc1OC[C@@H](O)CNC(C)C", "note": "[1-Alprenolol]", "values": [
      {"measurement": "inhibition at 1000 µM", "setting": "human sperm; [2]", "value": 17, "unit": "%"},
      {"measurement": "inhibition at 1000 µM", "setting": "human sperm; [4]", "value": 26.9, "unit": "%"}
    ]},
    {"compound": "CCCC(=O)Nc1ccc(OCC(O)CNC(C)C)c(C(C)=O)c1", "note": "(stereo not drawn) [Acebutolol]", "values": [
      {"measurement": "inhibition at 25000 µM", "setting": "human sperm; Homo sapiens, Sperm, Table 4", "value": 11.3, "unit": "%"}
    ]},
    {"compound": "CCc1cccc2cc(C(O)CNC(C)(C)C)oc12", "note": "(stereo not drawn) [Bufuralol]", "values": [
      {"measurement": "apparent octanol/buffer (pH 7.4) partition coefficient", "setting": "[1]", "value": "greater than 1"},
      {"measurement": "inhibition at 1000 µM", "setting": "human sperm; Homo sapiens, Sperm, read-out: % Inhibition of Sperm Motility, Table 2, beta-blocker 1.0 mM alone", "value": 28.5, "unit": "%"},
      {"measurement": "inhibition at 1000 µM", "setting": "human sperm; Homo sapiens, Sperm, read-out: % Inhibition of Sperm Motility, Table 3, beta-blocker 1.0 mM alone", "value": 22, "unit": "%"}
    ]},
    {"compound": "COCCc1ccc(OCC(O)CNC(C)C)cc1", "note": "(stereo not drawn) [Metoprolol]", "values": [
      {"measurement": "inhibition at 10000 µM", "setting": "human sperm; Homo sapiens, Sperm, Table 2, beta-blocker 10.0 mM alone", "value": 7.1, "unit": "%"},
      {"measurement": "inhibition at 10000 µM", "setting": "human sperm; Homo sapiens, Sperm, Table 3, beta-blocker 10 mM alone", "value": 0, "unit": "%"}
    ]},
    {"compound": "C=CCOc1ccccc1OCC(O)CNC(C)C", "note": "(stereo not drawn) [Oxprenolol]", "values": [
      {"measurement": "inhibition at 5000 µM", "setting": "human sperm; Homo sapiens, Sperm, Table 2, beta-blocker 5.0 mM alone", "value": 3.4, "unit": "%"},
      {"measurement": "inhibition at 5000 µM", "setting": "human sperm; Homo sapiens, Sperm, Table 3, beta-blocker 5 mM alone", "value": 0, "unit": "%"}
    ]},
    {"compound": "CC(C)(C)NC[C@H](O)COc1ccccc1C1CCCC1", "note": "[Penbutolol]", "values": [
      {"measurement": "apparent octanol/buffer (pH 7.4) partition coefficient", "setting": "[1]", "value": "greater than 1"},
      {"measurement": "inhibition at 100 µM", "setting": "human sperm; Homo sapiens, Sperm, Table 2", "value": 6.2, "unit": "%"},
      {"measurement": "inhibition at 100 µM", "setting": "human sperm; Homo sapiens, Sperm, Table 3", "value": 0, "unit": "%"},
      {"measurement": "inhibition at 100 µM", "setting": "human sperm; Homo sapiens, Sperm, Table 5", "value": 17.8, "unit": "%"}
    ]},
    {"compound": "CC(C)NCC(O)COc1cccc2[nH]ccc12", "note": "(stereo not drawn) [Pindolol]", "values": [
      {"measurement": "inhibition at 25000 µM", "setting": "human sperm; Homo sapiens, Sperm, Table 3", "value": 10.2, "unit": "%"}
    ]},
    {"compound": "CC(C)(C)NC[C@H](O)COc1nsnc1N1CCOCC1", "note": "[Timolol]", "values": [
      {"measurement": "inhibition at 25000 µM", "setting": "human sperm; Homo sapiens, Sperm, Table 4", "value": 4.9, "unit": "%"}
    ]},
    {"compound": "C=CCc1ccccc1OCC(O)CNC(C)C", "note": "(stereo not drawn) [alprenolol]", "values": [
      {"measurement": "apparent octanol/buffer (pH 7.4) partition coefficient", "setting": "[1]", "value": "greater than 1"}
    ]},
    {"compound": "CC(C)NC[C@@H](O)COc1cccc2ccccc12", "note": "[d-Propranolol]", "values": [
      {"measurement": "inhibition at 1000 µM", "setting": "human sperm; Homo sapiens, Sperm, Table 1, d-Propranolol 1.0 mM alone, % of control, read-out: % Inhibition of Sperm Motility", "value": 28, "unit": "%"},
      {"measurement": "inhibition at 2500 µM", "setting": "human sperm; Homo sapiens, Sperm, Table 1, d-Propranolol 2.5 mM alone, % of control", "value": 76.5, "unit": "%"},
      {"measurement": "inhibition at 1000 µM", "setting": "human sperm; [2]", "value": 3.6, "unit": "%"},
      {"measurement": "inhibition at 1000 µM", "setting": "human sperm; [4]", "value": 4, "unit": "%"},
      {"measurement": "inhibition at 1000 µM", "setting": "human sperm; [3]", "value": 0.2, "unit": "%"}
    ]},
    {"compound": "Nonoxynol-9", "values": [
      {"measurement": "% Inhibition of Sperm Motility", "setting": "human sperm; Table 1, Nonoxynol-9 0.16 mM alone, % of control", "value": 12.5, "unit": "%"},
      {"measurement": "% Inhibition of Sperm Motility", "setting": "human sperm; Table 1, Nonoxynol-9 1.6 mM alone, % of control", "value": 97.7, "unit": "%"},
      {"measurement": "% Inhibition of Sperm Motility", "setting": "human sperm; Table 2, different sperm source, Nonoxynol-9 at its IC50, alone", "value": 50, "unit": "%"},
      {"measurement": "% Inhibition of Sperm Motility", "setting": "human sperm; Table 3, another sperm source, Nonoxynol-9 at its IC50, alone", "value": 50.0, "unit": "%"},
      {"measurement": "% Inhibition of Sperm Motility", "setting": "human sperm; Table 4, another sperm source, Nonoxynol-9 at its IC50, alone", "value": 50.0, "unit": "%"}
    ]},
    {"compound": "Octoxynol", "values": [
      {"measurement": "% Inhibition of Sperm Motility", "setting": "human sperm; Table 5, another sperm source, Octoxynol at its IC50, alone", "value": 50.0, "unit": "%"}
    ]}
  ]
}
